Results taken from PMC6136245 (Bioorganic & medicinal chemistry letters, 2013).

How the values were obtained:
[1] = biological target: T1, HCV NS3 helicase (NS3h) (Hepacivirus hominis (Hepatitis C virus), UniProt P29846); assay: HCV helicase unwinding assay, RNA substrate; format: biochemical
[2] = biological target: T1, HCV NS3 helicase (NS3h); assay: HCV helicase unwinding assay, DNA substrate; format: biochemical
[3] = biological target: JEV helicase (Japanese encephalitis virus, UniProt P27395); assay: JEV helicase inhibition; format: biochemical
[4] = tested on: EcoRI-digested pT7-7 plasmid; assay: Gel shift assay with plasmid; format: binding
[5] = biological target: DENV helicase (Dengue virus type 2, UniProt P29990); assay: DENV helicase inhibition; format: biochemical
Chain of DENV helicase (P29990 1476-2093): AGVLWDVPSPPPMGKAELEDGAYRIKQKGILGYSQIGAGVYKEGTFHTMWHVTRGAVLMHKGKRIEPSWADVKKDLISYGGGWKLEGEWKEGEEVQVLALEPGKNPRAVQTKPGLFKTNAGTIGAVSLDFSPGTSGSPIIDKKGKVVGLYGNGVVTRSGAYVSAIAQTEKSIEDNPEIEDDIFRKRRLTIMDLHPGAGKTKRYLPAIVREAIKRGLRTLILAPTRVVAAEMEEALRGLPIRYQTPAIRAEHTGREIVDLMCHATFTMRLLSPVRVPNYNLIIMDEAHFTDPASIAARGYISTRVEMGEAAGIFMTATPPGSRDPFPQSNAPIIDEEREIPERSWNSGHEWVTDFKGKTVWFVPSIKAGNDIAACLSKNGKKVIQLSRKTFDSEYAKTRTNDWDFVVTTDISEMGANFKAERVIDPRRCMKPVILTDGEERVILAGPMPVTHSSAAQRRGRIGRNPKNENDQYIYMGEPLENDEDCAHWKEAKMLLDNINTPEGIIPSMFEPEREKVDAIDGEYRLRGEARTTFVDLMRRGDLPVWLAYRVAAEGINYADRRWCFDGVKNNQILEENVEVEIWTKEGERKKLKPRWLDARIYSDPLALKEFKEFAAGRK

T1 sequence (P29846 1192-1657): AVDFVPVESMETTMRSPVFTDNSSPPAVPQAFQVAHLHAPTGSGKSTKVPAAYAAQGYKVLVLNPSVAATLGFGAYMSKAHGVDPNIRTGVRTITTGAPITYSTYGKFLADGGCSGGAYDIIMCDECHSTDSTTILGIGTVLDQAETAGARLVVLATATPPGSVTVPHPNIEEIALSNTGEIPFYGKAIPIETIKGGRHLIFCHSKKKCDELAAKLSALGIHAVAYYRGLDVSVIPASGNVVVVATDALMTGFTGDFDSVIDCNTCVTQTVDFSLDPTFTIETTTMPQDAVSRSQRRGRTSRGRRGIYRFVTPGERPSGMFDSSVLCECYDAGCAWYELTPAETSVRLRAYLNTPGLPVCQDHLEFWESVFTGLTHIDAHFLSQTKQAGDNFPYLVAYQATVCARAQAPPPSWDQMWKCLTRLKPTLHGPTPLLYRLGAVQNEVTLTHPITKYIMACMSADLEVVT
Chain of JEV helicase (P27395 1505-2123): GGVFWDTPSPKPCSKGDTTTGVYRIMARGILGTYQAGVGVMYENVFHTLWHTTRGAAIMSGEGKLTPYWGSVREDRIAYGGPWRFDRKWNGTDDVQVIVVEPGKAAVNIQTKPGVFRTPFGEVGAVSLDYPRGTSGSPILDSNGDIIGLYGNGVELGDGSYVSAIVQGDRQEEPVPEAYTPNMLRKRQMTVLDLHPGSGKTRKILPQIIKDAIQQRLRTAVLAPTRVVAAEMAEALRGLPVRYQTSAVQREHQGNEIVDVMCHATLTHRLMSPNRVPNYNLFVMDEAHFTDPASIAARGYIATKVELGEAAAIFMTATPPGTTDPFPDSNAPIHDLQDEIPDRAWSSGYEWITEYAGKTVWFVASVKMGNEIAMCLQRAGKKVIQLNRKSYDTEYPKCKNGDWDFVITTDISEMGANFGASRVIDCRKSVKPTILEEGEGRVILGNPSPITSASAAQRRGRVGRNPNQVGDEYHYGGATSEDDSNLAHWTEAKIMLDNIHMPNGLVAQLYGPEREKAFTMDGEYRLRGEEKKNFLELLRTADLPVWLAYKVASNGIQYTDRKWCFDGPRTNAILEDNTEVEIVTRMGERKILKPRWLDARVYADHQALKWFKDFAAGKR

Structure (SMILES) | IC50 [1] [µM] | HCV helicase inhibition, in words ([1]; RNA substrate) | HCV helicase inhibition, in words ([2]; DNA substrate) | IC50 [2] [µM] | JEV helicase inhibition, in words [3] | Effect on gel mobility of plasmid [4] | DENV helicase inhibition, in words [5]
COC(=O)c1cccc2oc(-c3cccc4oc(-c5ccccc5O)nc34)nc12 [UK-1] | > 1200 | no inhibition | weak inhibition |  |  |  | 
COC(=O)c1cccc2oc(-c3ccccc3O)nc12 [Compound 1] | > 1800 |  |  | > 1800 |  |  | 
COC(=O)c1cccc2oc(-c3ccc4ccc(OCc5ccccc5)cc4c3O)nc12 [Compound 6] |  |  |  |  | no inhibition | do not affect | no inhibition
CNC(=O)c1cccc2oc(-c3ccccc3O)nc12 [Compound 3] | > 1800 |  |  | > 1800 |  |  | 
O=C(O)c1cccc2oc(-c3ccccc3O)nc12 [Compound 2] | > 1800 |  |  | > 1800 |  |  | 
COC(=O)c1cccc2oc(-c3ccc4c(OCc5ccccc5)cccc4c3O)nc12 [Compound 5] |  |  |  |  | no inhibition | do not affect | no inhibition
